Measured values taken from patent publication US20240092784A1, “CONDENSED HETEROCYCLIC COMPOUND” (NISSAN CHEMICAL CORPORATION, priority 2020, published 2024).

Each compound was assayed against T1, human SPR (Homo sapiens (Human), UniProt P35270) (assay: Evaluation Example 2: Measurement of human SPR inhibitory activity (seven concentrations, sepiapterin absorbance at 420 nm)). Settings: Evaluation Example 2, seven concentrations 0.14 nM to 100 nM, 240 minutes at room temperature, read-out: IC50.
T1 sequence (P35270 whole entry): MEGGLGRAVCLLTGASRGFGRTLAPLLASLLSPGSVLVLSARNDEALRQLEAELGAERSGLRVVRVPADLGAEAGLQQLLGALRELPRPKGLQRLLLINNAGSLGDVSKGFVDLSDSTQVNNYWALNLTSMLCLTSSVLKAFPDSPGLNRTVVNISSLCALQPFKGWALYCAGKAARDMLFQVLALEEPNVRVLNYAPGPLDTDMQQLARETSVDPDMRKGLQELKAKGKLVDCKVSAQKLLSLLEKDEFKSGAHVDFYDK
Type: biochemical
Procedure, shortened: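 Reactions ran 240 min at room temperature in 100 mM Tris-HCl pH 7.5 with 0.01% BSA. They contained tag-cleaved, E. coli-expressed full-length human SPR (diluted to 150 ng/mL), seven compound concentrations from 0.14 to 100 nM, and sepiapterin/NADPH added as a 120 μM/160 μM solution. Inhibition was calculated from sepiapterin absorbance at 420 nm.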
Compound CC(C)Cn1c(=O)c(C(=O)NC2CC2)c(O)n2ncc(/C=C/C(=O)N3CCOCC34CC4)c12 [compound 541, (E)-N-Cyclopropyl-7-hydroxy-4-isobutyl-5-oxo-3-(3-oxo-3-(7-oxa-4-azaspiro[2.5]octan-4-yl)prop-1-en-1-yl)-4,5-dihydropyrazolo[1,5-a]pyrimidine-6-carboxamide] has an IC50 of 0.82 nM.
With CC(C)Cn1c(=O)c(C(=O)NC2CC2)c(O)n2ncc(/C=C/C(=O)N3CCC[C@@H]3C(C)C)c12 [compound 599, (R,E)-N-Cyclopropyl-7-hydroxy-4-isobutyl-3-(3-(2-isopropylpyrrolidin-1-yl)-3-oxoprop-1-en-1-yl)-5-oxo-4,5-dihydropyrazolo[1,5-a]pyrimidine-6-carboxamide] the IC50 was 1.27 nM.
Cc1nn2c(O)c(C(=O)NC3CC3)c(=O)n(CC(C)C)c2c1/C=C/C(=O)N(C)Cc1cnccn1 [Synthesis Example 636, (E)-N-Cyclopropyl-7-hydroxy-4-isobutyl-2-methyl-3-(3-(methyl(pyrazin-2-ylmethyl)amino)-3-oxoprop-1-en-1-yl)-5-oxo-4,5-dihydropyrazolo[1,5-a]pyrimidine-6-carboxamide] was tested, and the IC50 was 1.47 nM.
With O=C(NC1CC1)c1c(O)n2ncc(/C=C/C(=O)N3C[C@H]4C[C@@H]3CO4)c2n(CC2(F)CC2)c1=O [Synthesis Example 377] the IC50 was 0.78 nM.
In the case of COC1(C)CCN(C(=O)/C=C/c2cnn3c(O)c(C(=O)NC4CC4)c(=O)n(CC(C)C)c23)CC1 [compound 470], the IC50 is reported as 0.88 nM.

Same assay, conditions: sepiapterin absorbance, Table 41, read-out: concentration at 50% inhibition of human SPR (IC50)
Work on CC(C)Cn1c(=O)c(C(=O)NC2CC2)c(O)n2ncc(/C=C/C(=O)N3CCOc4cnccc43)c12 [Synthesis Example 728, (E)-N-Cyclopropyl-3-(3-(2,3-dihydro-1H-pyrido[3,4-b][1,4]oxazin-1-yl)-3-oxoprop-1-en-1-yl)-7-hydroxy-4-isobutyl-5-oxo-4,5-dihydropyrazolo[1,5-a]pyrimidine-6-carboxamide] yielded an IC50 of 1.07 nM.

These compounds were tested against T1, human SPR (assay: Evaluation Example 1: Measurement of human SPR inhibitory activity (sepiapterin absorbance at 420 nm)). Settings: 240 minutes at room temperature.
Type: biochemical
Description: Human SPR was prepared as described below. The full-length human SPR (1-261) cDNA was purchased from Eurofins Genomics as an artificially synthesized plasmid containing a DNA sequence optimized for the E. coli expression system so that the sequence of the expressed protein after transcription and translation matches the sequence described in UniprotKB (P35270).
Linearized insert and vector were prepared by PCR using primers designed for amplification of human SPR cDNA and primers designed to contain the thrombin recognition sequence of pET28a (Novagen) and a polyhistidine tag. Cloning was performed using In-Fusion (registered trademark) HD Cloning Kit (TaKaRa) to thereby construct a human SPR expression plasmid. The resultant human SPR expression plasmid was transformed into BL21 (DE3) competent cells (INVITROGEN).
The cells were inoculated into LB medium (1% triptone, 0.5% yeast extract, 1% sodium chloride) containing […] of kanamycin, and then precultured at 37° C. overnight. The precultured cells were inoculated into TB medium (1.2% triptone, 2.4% yeast extract, 9.4% dipotassium hydrogen phosphate, 2.2% potassium dihydrogen phosphate, 0.8% glycerin) containing […] of kanamycin, and the cultured at 37° C., to thereby induce SPR expression with 0.5 mM IPTG for four hours. After the induction, the cells were collected by centrifugation at 6,000 G for 30 minutes and washed with PBS, and the washing was discarded. The washed cells were suspended in buffer solution A (20 mM MES, pH 6.5, 100 mM sodium chloride, 1 mM DTT, 5 mM imidazole). Subsequently, the cell suspension was subjected to ultrasonic treatment to thereby homogenize the cells. The cell homogenate was clarified by centrifugation at 30,000 G for 60 minutes and then filtered with a […]. The filtrate was allowed to pass through HisTrapFF 5 mL column (GE Healthcare). The resin was washed with buffer A, and then gradient elution was performed with buffer B (20 mM MES, pH 6.5, 100 mM sodium chloride, 1 mM DTT, 500 mM imidazole). Thrombin was added to a fraction containing the SPR protein, and the mixture was dialyzed in buffer A overnight, to thereby cleave the tag. After removal of the thrombin by with Benzamidine Sepharose 4 FF (GE Healthcare), the resultant product was allowed to pass through the HisTrapFF 5 mL column, to thereby remove the tag, followed by concentration with Amicon Ultra 10,000 NMWL (Merck Millipore). The concentrate was purified by gel filtration using HiLoad 16/60 Superdex 75 pg (GE Healthcare) equilibrated with buffer C (20 mM MES, pH 6.5, 100 mM sodium chloride, 1 mM DTT). The fraction containing SPR protein was concentrated and then cryopreserved at −80° C.
Human SPR inhibitory activity was measured by using a 384-well low adsorption clear plate (Greiner) with buffer D containing 100 mM Tris-HCl (pH 7.5) (Thermo Fisher Scientific) and 0.01% bovine serum albumin (Sigma). A compound was diluted with DMSO to a concentration of 1 mM, and a 1 μL aliquot of the preparation was diluted with 250 μL of buffer D. The thus-diluted compound was dispensed into the 384-well plate at […]. Thereafter, human SPR was diluted with buffer D to 200 ng/mL and then dispensed into the 384-well plate at 20 μL/well. Subsequently, 40 μL of ultrapure water containing 120 μM Sepiapterin (WuXi AppTec) and 120 μM NADPH (Nacalai) was added to each well, and mixed with a vortex mixer, to thereby initiate the reaction. The reaction mixture was incubated at room temperature for 240 minutes, and the reaction was terminated by addition of 10 μL of ultrapure water containing 2% formic acid (Nacalai). In order to determine the amount of sepiapterin after termination of the reaction, the absorbance at 420 nm was measured by applying the 384-well plate to EnSpire multimode plate reader (Perkin Elmer). The percent inhibition (%) of human SPR by the test compound was calculated by the following formula. […]
In the case of CC1(Cn2c(=O)c(C(=O)NC3CCC3)c(O)n3nc(Nc4cnccn4)cc23)CCOCC1 [Synthesis Example 31, N-Cyclobutyl-7-hydroxy-4-((4-methyltetrahydro-2H-pyran-4-yl)methyl)-5-oxo-2-(pyrazin-2-ylamino)-4,5-dihydropyrazolo[1,5-a]pyrimidine-6-carboxamide], the IC50 is reported as under 1000 nM.
CC(C)(C)Cn1c(=O)c(C(=O)NC2CC2)c(O)n2nc(C(=O)Nc3ccccn3)cc12 [Synthesis Example 41, N6-Cyclopropyl-7-hydroxy-4-neopentyl-5-oxo-N2-(pyridin-2-yl)-4,5-dihydropyrazolo[1,5-a]pyrimidine-2,6-dicarboxamide] gave an IC50 of under 1000 nM.
In the case of CC(C)Cn1c(=O)c(C(=O)NC2CC2)c(O)n2ncc(/C=C/C(=O)O)c12 [Synthesis Example 9, (E)-3-(6-(Cyclopropylcarbamoyl)-7-hydroxy-4-isobutyl-5-oxo-4,5-dihydropyrazolo[1,5-a]pyrimidin-3-yl)acrylic acid], the IC50 is reported as under 1000 nM.
Work on CC(C)Cn1c(=O)c(C(=O)NC2CC2)c(O)n2ncc(C=O)c12 [Synthesis Example 7, N-Cyclopropyl-3-formyl-7-hydroxy-4-isobutyl-5-oxo-4,5-dihydropyrazolo[1,5-a]pyrimidine-6-carboxamide] yielded an IC50 of under 1000 nM.
In the case of O=C(NC1CC1)c1c(O)n2ncc(C3=CCOCC3)c2n(CC2CCOCC2)c1=O [Synthesis Example 35, N-Cyclopropyl-3-(3,6-dihydro-2H-pyran-4-yl)-7-hydroxy-5-oxo-4-((tetrahydro-2H-pyran-4-yl)methyl)-4,5-dihydropyrazolo[1,5-a]pyrimidine-6-carboxamide], the IC50 is reported as under 1000 nM.
CCOC(=O)c1cc2n(CC(C)(C)C)c(=O)c(C(=O)NC3CC3)c(O)n2n1 [Synthesis Example 1, Ethyl 6-(cyclopropylcarbamoyl)-7-hydroxy-4-neopentyl-5-oxo-4,5-dihydropyrazolo[1,5-a]pyrimidine-2-carboxylate] was tested, and the IC50 was under 1000 nM.
In the case of CC(C)(C)Cn1c(=O)c(C(=O)NC2CC2)c(O)n2nc(NC(=O)OC(C)(C)C)cc12 [Synthesis Example 3, Tert-butyl (6-(cyclopropylcarbamoyl)-7-hydroxy-4-neopentyl-5-oxo-4,5-dihydropyrazolo[1,5-a]pyrimidin-2-yl)carbamate], the IC50 is reported as under 1000 nM.
In the case of CC(C)(C)Cn1c(=O)c(C(=O)NC2CC2)c(O)n2nc(Nc3cnc(C(=O)O)cn3)cc12 [Synthesis Example 20, 5-((6-(Cyclopropylcarbamoyl)-7-hydroxy-4-neopentyl-5-oxo-4,5-dihydropyrazolo[1,5-a]pyrimidin-2-yl)amino)pyrazine-2-carboxylic acid], the IC50 is reported as under 1000 nM.
Compound COC(=O)c1cnc(Nc2cc3n(CC(C)(C)C)c(=O)c(C(=O)NC4CC4)c(O)n3n2)cn1 [Synthesis Example 19, Methyl 5-((6-(cyclopropylcarbamoyl)-7-hydroxy-4-neopentyl-5-oxo-4,5-dihydropyrazolo[1,5-a]pyrimidin-2-yl)amino)pyrazine-2-carboxylate] has an IC50 of under 1000 nM.
CC1(Cn2c(=O)c(C(=O)NC3CC3)c(O)n3nc(-c4cccnc4N)cc23)CCOCC1 [Synthesis Example 29, 2-(2-Aminopyridin-3-yl)-N-cyclopropyl-7-hydroxy-4-((4-methyltetrahydro-2H-pyran-4-yl)methyl)-5-oxo-4,5-dihydropyrazolo[1,5-a]pyrimidine-6-carboxamide] gave an IC50 of under 1000 nM.
For O=C(NC1CC1)c1c(O)n2nc(C3CC3)cc2n(CC2CCOCC2)c1=O [Synthesis Example 135, N,2-Dicyclopropyl-7-hydroxy-5-oxo-4-((tetrahydro-2H-pyran-4-yl)methyl)-4,5-dihydropyrazolo[1,5-a]pyrimidine-6-carboxamide], the IC50 was under 1000 nM.
CC(C)(C)Cn1c(=O)c(C(=O)NC2CC2)c(O)n2nc(C(=O)O)cc12 [Synthesis Example 2, 6-(Cyclopropylcarbamoyl)-7-hydroxy-4-neopentyl-5-oxo-4,5-dihydropyrazolo[1,5-a]pyrimidine-2-carboxylic acid] was tested, and the IC50 was under 1000 nM.
For CC(C)Cn1c(=O)c(C(=O)NC2CC2)c(O)n2nc(Br)cc12 [Synthesis Example 22, 2-Bromo-N-cyclopropyl-7-hydroxy-4-isobutyl-5-oxo-4,5-dihydropyrazolo[1,5-a]pyrimidine-6-carboxamide], the IC50 was under 1000 nM.
For CCOC(=O)c1cnn2c(O)c(C(=O)NC3CC3)c(=O)n(CC(C)C)c12 [Synthesis Example 5, Ethyl 6-(cyclopropylcarbamoyl)-7-hydroxy-4-isobutyl-5-oxo-4,5-dihydropyrazolo[1,5-a]pyrimidine-3-carboxylate], the IC50 was under 1000 nM.
Compound CC(C)(C)Cn1c(=O)c(C(=O)NC2CC2)c(O)n2nc(Br)cc12 [Synthesis Example 11, 2-Bromo-N-cyclopropyl-7-hydroxy-4-neopentyl-5-oxo-4,5-dihydropyrazolo[1,5-a]pyrimidine-6-carboxamide] has an IC50 of under 1000 nM.
For CC1(Cn2c(=O)c(C(=O)NC3CC3)c(O)n3nc(Nc4cnccn4)cc23)CCOCC1 [Synthesis Example 28, N-Cyclopropyl-7-hydroxy-4-((4-methyltetrahydro-2H-pyran-4-yl)methyl)-5-oxo-2-(pyrazin-2-ylamino)-4,5-dihydropyrazolo[1,5-a]pyrimidine-6-carboxamide], the IC50 was under 1000 nM.
